Legend:
[1] = tested on: EBOV infection of Vero E6 cells; format: cell-based, Ebola virus
[2] = tested on: Ebola GP in lipid rafts of 293T cells; format: cell-based, human

Compound | EBOV infection, viral titer 48 hour post infection [1] | virus production after recovery from drug treatment [1] | general cytotoxic effect, trypan blue exclusion (Vero E6 cells) | association of Ebola GP with rafts (detergent insoluble fraction) [2]
CCCCC[C@@H](O)[C@H]1C(=O)O[C@H](C)[C@@H](O)/C=C/C=C/C=C/C=C/C=C(\C)[C@@H](O)C[C@H](O)C[C@H](O)C[C@H](O)C[C@H](O)C[C@H](O)C[C@@H]1O [filipin] | significant inhibition of EBOV infection | could produce large amounts of virus | viable | –
methyl-β-cyclodextrin | – | – | – | almost complete removal of Ebola GP from rafts
nystatin | – | – | viable | –

Reference: patent publication US7682618B2 (priority 2001, dated 2010)
